Measured values from PMC7300217, “Surfactin Like Broad Spectrum Antimicrobial Lipopeptide Co-produced With Sublancin From Bacillus subtilis Strain A52: Dual Reservoir of Bioactives” (Frontiers in Microbiology, 2020).

Legend:
[1] = system: C. acutatum MTCC1037; experiment: MIC against phytopathogenic fungi, 96-well microtiter plate assay; assay type: cell-based, Colletotrichum acutatum; details: 1 × 10^5 spores/ml in PDB, 25°C, OD600 after 48 h, triplicate
Protocol: The antimicrobial activity was tested by well diffusion assay as mentioned earlier ([Singh et al., 2014]). Strain A52 was grown for 24 h in 500 ml of nutrient broth (NB, Hi-media, India) using 1000 ml flask and subsequently cells were removed by centrifugation (10,000 rpm for 15 min at 4°C). Supernatant was filtered through 0.22 μm filter (Millipore, United States) to obtain cell-free fermented broth (CFB) that was used for antimicrobial assay (50 μl) against various indicator strains and the activity was measured as diameter of inhibition zone. […]
The minimum inhibitory concentration (MIC) of HPLC purified peptides was evaluated by using microtiter plate dilution assay. […] OD was measured at 600 nm after 24 and 48 h for bacteria and yeast, respectively, using ELISA microplate reader (Thermo, United States). MIC against phytopathogenic fungi was determined using 96-well microtiter plate assay ([Kaur et al., 2016]). […] The microplates were incubated at 25°C and readings were recorded at 600 nm after 48 h. […]

[2] = pH stability, residual antimicrobial activity; assay type: physicochemical; details: for Residual activity (%), pH 2.0: pH 2.0 (10 mM HCl or NaOH)
Protocol: Sensitivity of purified peptides toward temperature, pH, and non-specific proteases was confirmed by performing bioassays. The pH stability was determined by adjusting the pH 2.0–12.0 of peptide aliquots (using 10 mM HCl or NaOH) and incubating for 4 h at room temperature. Samples were neutralized to pH 7.0 before processing for antimicrobial assay. To determine temperature susceptibility, peptides were incubated at different temperatures ranging from 37 to 100°C for 1 h and 121°C for 15 min and residual antimicrobial activity was determined at RT by well diffusion assay. Proteolytic enzymes trypsin and proteinase K (Sigma, United States) were used at three different concentrations (0.1, 1.0, and 5.0 mg/ml) to observe their effect on the peptide. The enzyme solutions were prepared in 50 mM phosphate buffer (pH 7.0). All reactions were performed at 37°C for 6 h followed by deactivation of enzyme by heating the solution in boiling water for 5 min before performing the activity assay.

[3] = system: S. aureus MTCC 1430; experiment: TLC overlay bioautography; assay type: cell-based, Staphylococcus aureus; details: ∼10^6 cells/ml, 24 h at 37°C
Protocol: Purified antimicrobial peptides were analyzed on TLC plates (Silica gel 60 F254, Merck, Germany) and used to determine the purity and antimicrobial activity of the compound by bioautographic assay ([Zheng et al., 2005]). About 50–60 μl of the peptide solution (100 μg/ml concentration) was loaded onto individual TLC silica gel plates in duplicates and were developed using a solvent system containing chloroform: […]: water (65:12:4 v/v). Subsequently, each TLC plate was dried, cut into two vertical parts, and one part of the TLC was used for direct detection of antimicrobial activity by overlaying on NA plate containing indicator strain (S. aureus MTCC 1430, ∼10^6 cells/ml). After allowing for 1 h of diffusion at 4°C, the TLC strip was removed and plates were incubated for 24 h at 37°C. The other part of TLC strip (5–10 μl of the peptide solution spot) was sprayed with ninhydrin and phosphomolybdic acid as a staining reagent to detect the presence of peptides and lipid moieties, respectively. Similarly, peptides were electrophoresed on 16% Tricine-SDS-PAGE and used for in-gel activity assay as described earlier ([Baindara et al., 2016]). S. aureus MTCC 1430 (∼10^6 cells/ml) was used as an indicator strain in assay.

[4] = Collapse drop assay (CDA); assay type: physicochemical; details: 5 μl of peptide (10 μg/ml) on mineral oil, observed after 1 min
Protocol: The surfactant property of peptide was determined using the qualitative drop-collapse assay ([Youssef et al., 2004]). Mineral oil (2 μl) was added to 96-well microtiter plate and equilibrated for 24 h at 37°C. After equilibration 5 μl of purified peptides (10 μg/ml) were added to the surface of the oil and drop shape was observed after 1 min using magnifying glass. Triton X-100 and water were used as positive and negative control, respectively.

For “Glu^1-Leu/Ile^2-Leu^3-Val^4-Asp^5-Leu^6-Leu/Ile^7 and a β-OH hexadecane fatty acid chain (lariat or depsi) [Lipopeptide A52, cyclic surfactin-like lipopeptide, 7 amino acids and C16 β-hydroxy fatty acid, 1061.9 Da, from B. subtilis strain A52]”, the “MIC value, C. acutatum MTCC1037” value [1] was 35 µg/mL, the “Residual activity (%), pH 2.0” value ([2]; 4h/ 25°C, neutralized to pH 7.0 before antimicrobial assay, listed as Lipopeptide) was “Nil” and the “Residual activity (%), pH 2.0” value ([2]; 4h/ 25°C, neutralized to pH 7.0 before antimicrobial assay, listed as surfactin-like lipopeptide) was “complete loss in activity”. The “Residual activity (%), pH 4.0” value ([2]; pH 4.0 (10 mM HCl or NaOH), 4h/ 25°C, neutralized to pH 7.0 before antimicrobial assay) was 100%, the “Residual activity (%), pH 6.0” value ([2]; pH 6.0 (10 mM HCl or NaOH), 4h/ 25°C, neutralized to pH 7.0 before antimicrobial assay) was 100% and the “Residual activity (%), pH 7.0” value ([2]; pH 7.0, 4h/ 25°C) was 100%. The “Residual activity (%), pH 8.0” value ([2]; pH 8.0 (10 mM HCl or NaOH), 4h/ 25°C, neutralized to pH 7.0 before antimicrobial assay) was 100%, the “Residual activity (%), pH 10.0” value ([2]; pH 10.0 (10 mM HCl or NaOH), 4h/ 25°C, neutralized to pH 7.0 before antimicrobial assay) was 100% and the “Residual activity (%), pH 12.0” value ([2]; pH 12.0 (10 mM HCl or NaOH), 4h/ 25°C, neutralized to pH 7.0 before antimicrobial assay) was “Nil”. The “inhibition in TLC based overlay bioautographic assay” value [3] was “inhibited” and the “drop collapse (surfactant property)” value [4] was “positive”.
